Earlier results, collected in patent publication US20250041461A1, “[177LU] LUTETIUM-PSMA I&T COMPOSITION AND DOSIMETRY, KIT, METHOD OF MAKING, AND METHOD OF USING THEREOF” (Curium US LLC, priority 2023, published 2025).
Where two headings read alike, the source gives them in different places.

How the values were obtained:
[1] = cited from earlier work
[2] = cited from earlier work; for Absorbed Dose, Mean: Pluvicto; for dose estimate, Mean: Pluvicto Spc
prostate cancer = conditions: in vivo; cited from earlier work

Compound: O=C([O-])CN1CCN(CC(=O)[O-])CCN(CC(=O)NCC2CCC(C(=O)N[C@@H](Cc3ccc4ccccc4c3)C(=O)NCCCC[C@H](NC(=O)N[C@@H](CCC(=O)O)C(=O)O)C(=O)O)CC2)CCN(CC(=O)[O-])CC1.[177Lu+3] (some centres unmarked) [^177Lu-PSMA-617]
- mean renal absorbed dose ([1]; VISION trial, 29 patients): 0.43±0.16 Gy/GBq
- mean renal absorbed dose ([1]; Violet et al.): 0.39±0.16 Gy/GBq
- projected cumulative absorbed dose to the kidneys at 6 cycles ([1]; Vision trial): 19±7.3 Gy
- renal toxicities ([1]; Vision trial): no renal toxicities were observed
- Absorbed Dose, Mean ([2]; Bladder): 0.32 Gy/GBq
- dose estimate, Mean ([2]; Heart Wall): 0.17 Gy/GBq
- Absorbed Dose, Mean ([2]; Heart): 0.17 Gy/GBq
- dose estimate, Mean ([2]; Kidneys): 0.43 Gy/GBq
- Absorbed Dose, Mean ([2]; Kidneys): 0.43 Gy/GBq
- Absorbed Dose, Mean ([2]; Lacrimal Glands): 2.1 Gy/GBq
- dose estimate, Mean ([2]; Lacrimal gland): 2.1 Gy/GBq
- Absorbed Dose, Mean ([2]; Left Colon): 0.58 Gy/GBq
- dose estimate, Mean ([2]; Left colon): 0.58 Gy/GBq
- dose estimate, Mean ([2]; Liver): 0.09 Gy/GBq
- Absorbed Dose, Mean ([2]; Liver): 0.090 Gy/GBq
- dose estimate, Mean ([2]; Rectum): 0.56 Gy/GBq
- Absorbed Dose, Mean ([2]; Right Colon): 0.32 Gy/GBq
- dose estimate, Mean ([2]; Right colon): 0.32 Gy/GBq
- Absorbed Dose, Mean ([2]; Salivary Glands): 0.63 Gy/GBq
- dose estimate, Mean ([2]; Salivary glands): 0.63 Gy/GBq
- dose estimate, Mean ([2]; Spleen): 0.07 Gy/GBq
- Absorbed Dose, Mean ([2]; Spleen): 0.067 Gy/GBq
- dose estimate, Mean ([2]; Thyroid): 0.26 Gy/GBq
- Absorbed Dose, Mean ([2]; Thyroid): 0.26 Gy/GBq
- dose estimate, Mean ([2]; Urinary bladder wall): 0.32 Gy/GBq
- adverse effects (prostate cancer): mainly transient adverse effects
